Measurements from patent EP2970215B1, “PYRROLIDINE DERIVATIVES, PHARMACEUTICAL COMPOSITIONS CONTAINING THEM, AND THEIR USE IN THERAPY” (AbbVie Deutschland GmbH & Co. KG, priority 2013, dated 2014).

Molecular target: T1, human GlyT1c transporter (Homo sapiens, UniProt P48067)
T1 construct: expressed in transfected cells; host or cells: CHO cells (recombinant; line hGlyT1c_5_CHO is named for the uptake assay)
T1 sequence (P48067 1-706): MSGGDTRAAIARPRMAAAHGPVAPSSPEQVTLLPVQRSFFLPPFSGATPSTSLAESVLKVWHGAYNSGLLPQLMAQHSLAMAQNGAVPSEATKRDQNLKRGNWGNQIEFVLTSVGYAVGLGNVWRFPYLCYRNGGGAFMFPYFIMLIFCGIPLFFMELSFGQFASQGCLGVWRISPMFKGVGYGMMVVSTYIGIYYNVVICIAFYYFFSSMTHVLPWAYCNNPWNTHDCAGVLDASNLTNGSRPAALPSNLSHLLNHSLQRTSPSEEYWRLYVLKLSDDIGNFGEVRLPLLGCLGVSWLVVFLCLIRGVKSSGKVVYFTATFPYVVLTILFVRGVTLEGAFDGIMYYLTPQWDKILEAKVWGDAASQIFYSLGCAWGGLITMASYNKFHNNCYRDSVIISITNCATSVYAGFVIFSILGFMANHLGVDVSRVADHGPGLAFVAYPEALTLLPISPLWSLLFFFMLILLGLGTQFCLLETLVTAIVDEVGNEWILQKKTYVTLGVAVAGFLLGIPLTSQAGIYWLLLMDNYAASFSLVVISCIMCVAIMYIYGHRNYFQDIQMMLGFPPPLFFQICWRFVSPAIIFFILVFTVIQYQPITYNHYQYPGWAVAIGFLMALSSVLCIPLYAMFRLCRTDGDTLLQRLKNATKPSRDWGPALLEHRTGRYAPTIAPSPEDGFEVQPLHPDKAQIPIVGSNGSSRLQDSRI
Assay: Radioligand binding assay using recombinant CHO cell membranes expressing human GlyT1
Settings: radioligand binding to human GlyT1c transporter-expressing membranes
Text: 2. Radioligand binding assays using recombinant CHO cell membranes expressing human GlyT1: […]

Ki | SMILES
≤ 0.1 µM | Cc1cc(CN[C@H]2CN(S(=O)(=O)c3cn(C)cn3)C[C@@H]2c2ccccc2)sc1C [Example 455, (3R,4S)-N-[(4,5-dimethylthiophen-2-yl)methyl]-1-[(1-methyl-1H-imidazol-4-yl)sulfonyl]-4-phenylpyrrolidin-3-amine]
≤ 1 µM | Cn1cnc(S(=O)(=O)N2C[C@H](NCc3nc4c(s3)CCCC4)[C@@H](c3ccccc3)C2)c1 [Example 456, (3R,4S)-1-[(1-methyl-1H-imidazol-4-yl)sulfonyl]-4-phenyl-N-(4,5,6,7-tetrahydro-1,3-benzothiazol-2-ylmethyl)pyrrolidin-3-amine]
≤ 10 µM | Cn1cnc(S(=O)(=O)N2C[C@H](NCc3cncs3)[C@@H](c3ccccc3)C2)c1 [Example 457, (3R,4S)-1-[(1-methyl-1H-imidazol-4-yl)sulfonyl]-4-phenyl-N-(1,3-thiazol-5-ylmethyl)pyrrolidin-3-amine]
≤ 10 µM | CC1=C(CCN[C@H]2CN(S(=O)(=O)c3cn(C)cn3)C[C@@H]2c2ccccc2)C(C)(C)CCC1 [Example 458, (3R,4S)-1-[(1-methyl-1H-imidazol-4-yl)sulfonyl]-4-phenyl-N-[2-(2,6,6-trimethylcyclohex-1-en-1-yl)ethyl]pyrrolidin-3-amine]
≤ 1 µM | Cc1ccc(CCN[C@H]2CN(S(=O)(=O)c3cn(C)cn3)C[C@@H]2c2ccccc2)cc1 [Example 461, (3R,4S)-1-[(1-methyl-1H-imidazol-4-yl)sulfonyl]-N-[2-(4-methylphenyl)ethyl]-4-phenylpyrrolidin-3-amine]
≤ 1 µM | CC(C)CCN[C@H]1CN(S(=O)(=O)c2cn(C)cn2)C[C@@H]1c1ccccc1 [Example 463, (3R,4S)-N-(3-methylbutyl)-1-[(1-methyl-1H-imidazol-4-yl)sulfonyl]-4-phenylpyrrolidin-3-amine]
≤ 1 µM | CC(CCN[C@H]1CN(S(=O)(=O)c2cn(C)cn2)C[C@@H]1c1ccccc1)CC(C)(C)C (stereo partly drawn) [Example 464, (3R,4S)-1-[(1-methyl-1H-imidazol-4-yl)sulfonyl]-4-phenyl-N-(3,5,5-trimethylhexyl)pyrrolidin-3-amine]
≤ 1 µM | CC(CN[C@H]1CN(S(=O)(=O)c2cn(C)cn2)C[C@@H]1c1ccccc1)c1ccccc1 (stereo partly drawn) [Example 465, (3R,4S)-1-[(1-methyl-1H-imidazol-4-yl)sulfonyl]-4-phenyl-N-(2-phenylpropyl)pyrrolidin-3-amine]
≤ 1 µM | Cn1cnc(S(=O)(=O)N2C[C@H](NCC3(C)CCCCC3)[C@@H](c3ccccc3)C2)c1 [Example 467, (3R,4S)-N-[(1-methylcyclohexyl)methyl]-1-[(1-methyl-1H-imidazol-4-yl)sulfonyl]-4-phenylpyrrolidin-3-amine]
≤ 0.1 µM | Cn1cnc(S(=O)(=O)N2C[C@H](NCCc3cccc(Cl)c3)[C@@H](c3ccccc3)C2)c1 [Example 468, (3R,4S)-N-[2-(3-chlorophenyl)ethyl]-1-[(1-methyl-1H-imidazol-4-yl)sulfonyl]-4-phenylpyrrolidin-3-amine]
≤ 1 µM | Cn1cnc(S(=O)(=O)N2C[C@H](NCCOc3ccc(C(C)(C)C)cc3)[C@@H](c3ccccc3)C2)c1 [Example 469, (3R,4S)-N-[2-(4-tert-butylphenoxy)ethyl]-1-[(1-methyl-1H-imidazol-4-yl)sulfonyl]-4-phenylpyrrolidin-3-amine]
≤ 10 µM | CCC(CN[C@H]1CN(S(=O)(=O)c2cn(C)cn2)C[C@@H]1c1ccccc1)C(C)C (stereo partly drawn) [Example 470, (3R,4S)-N-(2-ethyl-3-methylbutyl)-1-[(1-methyl-1H-imidazol-4-yl)sulfonyl]-4-phenylpyrrolidin-3-amine]
≤ 0.1 µM | Cn1cnc(S(=O)(=O)N2C[C@H](NCCCc3cccc(Cl)c3)[C@@H](c3ccccc3)C2)c1 [Example 471, (3R,4S)-N-[3-(3-chlorophenyl)propyl]-1-[(1-methyl-1H-imidazol-4-yl)sulfonyl]-4-phenylpyrrolidin-3-amine]

The remaining lines, values behind:

SMILES | Ki
CC(C)CN[C@H]1CN(S(=O)(=O)c2cn(C)cn2)C[C@@H]1c1ccccc1 [Example 439, (3R,4S)-1-[(1-methyl-1H-imidazol-4-yl)sulfonyl]-N-(2-methylpropyl)-4-phenylpyrrolidin-3-amine] | ≤ 1 µM
Cn1cnc(S(=O)(=O)N2C[C@H](NCc3sc4ccccc4c3Cl)[C@@H](c3ccccc3)C2)c1 [Example 440, (3R,4S)-N-[(3-chloro-1-benzothiophen-2-yl)methyl]-1-[(1-methyl-1H-imidazol-4-yl)sulfonyl]-4-phenylpyrrolidin-3-amine] | ≤ 0.1 µM
Cc1nc(C)c(CN[C@H]2CN(S(=O)(=O)c3cn(C)cn3)C[C@@H]2c2ccccc2)s1 [Example 441, (3R,4S)-N-[(2,4-dimethyl-1,3-thiazol-5-yl)methyl]-1-[(1-methyl-1H-imidazol-4-yl)sulfonyl]-4-phenylpyrrolidin-3-amine] | ≤ 10 µM
Cn1cnc(S(=O)(=O)N2C[C@H](NCc3cc4cccnc4s3)[C@@H](c3ccccc3)C2)c1 [Example 442, (3R,4S)-1-[(1-methyl-1H-imidazol-4-yl)sulfonyl]-4-phenyl-N-(thieno[2,3-b]pyridin-2-ylmethyl)pyrrolidin-3-amine] | ≤ 1 µM
Cc1oc2ccccc2c1CN[C@H]1CN(S(=O)(=O)c2cn(C)cn2)C[C@@H]1c1ccccc1 [Example 443, (3R,4S)-N-[(2-methyl-1-benzofuran-3-yl)methyl]-1-[(1-methyl-1H-imidazol-4-yl)sulfonyl]-4-phenylpyrrolidin-3-amine] | ≤ 1 µM
Cn1cnc(S(=O)(=O)N2C[C@H](NCc3cncc(-c4ccc(F)cc4)c3)[C@@H](c3ccccc3)C2)c1 [Example 445, (3R,4S)-N-{[5-(4-fluorophenyl)pyridin-3-yl]methyl}-1-[(1-methyl-1H-imidazol-4-yl)sulfonyl]-4-phenylpyrrolidin-3-amine] | ≤ 1 µM
CCCC(C)CN[C@H]1CN(S(=O)(=O)c2cn(C)cn2)C[C@@H]1c1ccccc1 (stereo partly drawn) [Example 446, (3R,4S)-1-[(1-methyl-1H-imidazol-4-yl)sulfonyl]-N-(2-methylpentyl)-4-phenylpyrrolidin-3-amine] | ≤ 0.1 µM
Cn1cnc(S(=O)(=O)N2C[C@H](NCC3CCOC3)[C@@H](c3ccccc3)C2)c1 (stereo partly drawn) [Example 447, (3R,4S)-1-[(1-methyl-1H-imidazol-4-yl)sulfonyl]-4-phenyl-N-(tetrahydrofuran-3-ylmethyl)pyrrolidin-3-amine] | ≤ 10 µM
CCC(CC)CN[C@H]1CN(S(=O)(=O)c2cn(C)cn2)C[C@@H]1c1ccccc1 [Example 449, (3R,4S)-N-(2-ethylbutyl)-1-[(1-methyl-1H-imidazol-4-yl)sulfonyl]-4-phenylpyrrolidin-3-amine] | ≤ 1 µM
CCC(C)(C)CN[C@H]1CN(S(=O)(=O)c2cn(C)cn2)C[C@@H]1c1ccccc1 [Example 450, (3R,4S)-N-(2,2-dimethylbutyl)-1-[(1-methyl-1H-imidazol-4-yl)sulfonyl]-4-phenylpyrrolidin-3-amine] | ≤ 1 µM
Cn1cnc(S(=O)(=O)N2C[C@H](NCc3nc4ccccc4s3)[C@@H](c3ccccc3)C2)c1 [Example 453, (3R,4S)-N-(1,3-benzothiazol-2-ylmethyl)-1-[(1-methyl-1H-imidazol-4-yl)sulfonyl]-4-phenylpyrrolidin-3-amine] | ≤ 1 µM
Cc1csc(CN[C@H]2CN(S(=O)(=O)c3cn(C)cn3)C[C@@H]2c2ccccc2)n1 [Example 454, (3R,4S)-1-[(1-methyl-1H-imidazol-4-yl)sulfonyl]-N-[(4-methyl-1,3-thiazol-2-yl)methyl]-4-phenylpyrrolidin-3-amine] | ≤ 10 µM
